Assay results as given in ChEMBL document CHEMBL1201861, “Genomics of Drug Sensitity in Cancer screening data, Wellcome Trust Sanger Institute”.

Assays:
Test in all cases: cells
Assay type in all cases: functional, cell-based
[1] = tested on: HEC-1; settings: Homo sapiens;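 also: growth inhibition of the cell line, read out with a cell viability assay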
Description: SANGER: Inhibition of human HEC-1 cell growth in a cell viability assay.

[2] = tested on: YH-13; settings: Homo sapiens;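 also: cell viability readout of growth suppression in the human YH-13 cell line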
Description: SANGER: Inhibition of human YH-13 cell growth in a cell viability assay.

[3] = tested on: LB996-RCC; settings: Homo sapiens
Description: SANGER: Inhibition of human LB996-RCC cell growth in a cell viability assay.

[4] = tested on: ChaGo-K-1; settings: Homo sapiens;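 also: growth inhibition of ChaGo-K-1 cells, read out with a cell viability assay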
Description: SANGER: Inhibition of human ChaGo-K-1 cell growth in a cell viability assay.

[5] = tested on: Calu-3; settings: Homo sapiens;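 also: growth inhibition of human Calu-3 cells, determined with a cell viability assay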
Description: SANGER: Inhibition of human Calu-3 cell growth in a cell viability assay.

[6] = tested on: MDA-MB-231; settings: Homo sapiens
Description: SANGER: Inhibition of human MDA-MB-231 cell growth in a cell viability assay.

[7] = tested on: EW-22; settings: Homo sapiens;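 also: growth inhibition of the EW-22 cell line, measured with a cell viability readout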
Description: SANGER: Inhibition of human EW-22 cell growth in a cell viability assay.

[8] = tested on: RO82-W-1; settings: Homo sapiens;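 also: growth inhibition of human RO82-W-1 cells, measured with a cell viability assay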
Description: SANGER: Inhibition of human RO82-W-1 cell growth in a cell viability assay.

[9] = tested on: MKN-28; settings: Homo sapiens;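 also: cell viability assay read-out, IC50 reflects suppression of growth of human MKN-28 cells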
Description: SANGER: Inhibition of human MKN28 cell growth in a cell viability assay.

[10] = tested on: DOK; settings: Homo sapiens;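 also: cell viability assay read-out, values reflect inhibition of cell growth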
Description: SANGER: Inhibition of human DOK cell growth in a cell viability assay.

[11] = tested on: HCT-15; settings: Homo sapiens;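 also: cell viability readout, IC50 reflecting suppression of HCT-15 cell growth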
Description: SANGER: Inhibition of human HCT-15 cell growth in a cell viability assay.

[12] = tested on: M059J; settings: Homo sapiens;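 also: growth inhibition of M059J cells, read out with a cell viability assay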
Description: SANGER: Inhibition of human M059J cell growth in a cell viability assay.

[13] = tested on: NCI-H1651; settings: Homo sapiens;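 also: Read-out is a cell viability assay, with IC50 expressing inhibition of NCI-H1651 cell growth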
Description: SANGER: Inhibition of human NCI-H1651 cell growth in a cell viability assay.

[14] = tested on: SK-MEL-30; settings: Homo sapiens;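 also: growth inhibition of SK-MEL-30 cells, determined with a cell viability assay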
Description: SANGER: Inhibition of human SK-MEL-30 cell growth in a cell viability assay.

[15] = tested on: NCI-N87; settings: Homo sapiens;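 also: growth inhibition of human NCI-N87 cells, read out with a cell viability assay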
Description: SANGER: Inhibition of human NCI-N87 cell growth in a cell viability assay.

[16] = tested on: MC-IXC; settings: Homo sapiens;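 also: growth inhibition of MC-IXC cells, read out with a cell viability assay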
Description: SANGER: Inhibition of human MC-IXC cell growth in a cell viability assay.

[17] = tested on: COR-L23; settings: Homo sapiens;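 also: cell viability assay measuring how strongly compounds suppress growth of COR-L23 cells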
Description: SANGER: Inhibition of human COR-L23 cell growth in a cell viability assay.

[18] = tested on: SW1710; settings: Homo sapiens;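 also: growth inhibition of SW1710 cells, determined with a cell viability assay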
Description: SANGER: Inhibition of human SW1710 cell growth in a cell viability assay.

[19] = tested on: RMG-I; settings: Homo sapiens;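 also: growth inhibition of human RMG-I cells, read out with a cell viability assay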
Description: SANGER: Inhibition of human RMG-I cell growth in a cell viability assay.

[20] = tested on: SK-OV-3; settings: Homo sapiens;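 also: growth inhibition of SK-OV-3 human cells, read out with a cell viability assay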
Description: SANGER: Inhibition of human SK-OV-3 cell growth in a cell viability assay.

[21] = tested on: HCC1806; settings: Homo sapiens;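 also: growth inhibition of the cancer cell line, determined with a cell viability assay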
Description: SANGER: Inhibition of human HCC1806 cell growth in a cell viability assay.

[22] = tested on: SK-MES-1; settings: Homo sapiens;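 also: growth inhibition of human SK-MES-1 cells, read out with a cell viability assay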
Description: SANGER: Inhibition of human SK-MES-1 cell growth in a cell viability assay.

[23] = tested on: HuO-3N1; settings: Homo sapiens;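 also: cell viability readout used to measure how strongly compounds suppress proliferation of human HuO-3N1 cells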
Description: SANGER: Inhibition of human HuO-3N1 cell growth in a cell viability assay.

[24] = tested on: U-118-MG; settings: Homo sapiens
Description: SANGER: Inhibition of human U-118-MG cell growth in a cell viability assay.

[25] = tested on: D-336MG; settings: Homo sapiens
Description: SANGER: Inhibition of human D-336MG cell growth in a cell viability assay.

[26] = tested on: BEN; settings: Homo sapiens;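 also: growth inhibition of the BEN cell line, read out with a cell viability assay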
Description: SANGER: Inhibition of human BEN cell growth in a cell viability assay.

[27] = tested on: RCM-1; settings: Homo sapiens;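 also: growth inhibition of the RCM-1 line, determined with a cell viability readout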
Description: SANGER: Inhibition of human RCM-1 cell growth in a cell viability assay.

[28] = tested on: NCI-H520; settings: Homo sapiens;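 also: growth inhibition of NCI-H520 cells, measured by a cell viability assay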
Description: SANGER: Inhibition of human NCI-H520 cell growth in a cell viability assay.

[29] = tested on: BCPAP; settings: Homo sapiens;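 also: growth inhibition of BCPAP cells, read out in a cell viability assay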
Description: SANGER: Inhibition of human BCPAP cell growth in a cell viability assay.

[30] = tested on: T98G; settings: Homo sapiens;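 also: growth inhibition of T98G cells, read out by a cell viability assay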
Description: SANGER: Inhibition of human T98G cell growth in a cell viability assay.

[31] = tested on: OE33; settings: Homo sapiens;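 also: growth inhibition of human OE33 cells, measured by a cell viability assay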
Description: SANGER: Inhibition of human OE33 cell growth in a cell viability assay.

[32] = tested on: MDA-MB-361; settings: Homo sapiens
[33] = tested on: KYSE-150 cell line; settings: Homo sapiens;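 also: growth inhibition of human KYSE-150 cells, read out with a cell viability assay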
Description: SANGER: Inhibition of human KYSE-150 cell growth in a cell viability assay.

[34] = tested on: HN; settings: Homo sapiens
Description: SANGER: Inhibition of human HN cell growth in a cell viability assay.

[35] = tested on: CAL-39; settings: Homo sapiens;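 also: cell viability assay measuring growth inhibition of CAL-39 cells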
Description: SANGER: Inhibition of human CAL-39 cell growth in a cell viability assay.

[36] = tested on: NCI-H2122; settings: Homo sapiens;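 also: growth inhibition of the cells, read out with a cell viability assay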
Description: SANGER: Inhibition of human NCI-H2122 cell growth in a cell viability assay.

[37] = tested on: CAL-51; settings: Homo sapiens;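 also: human CAL-51 cell line, growth inhibition read out via a cell viability assay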
Description: SANGER: Inhibition of human CAL-51 cell growth in a cell viability assay.

[38] = tested on: NCI-H2342; settings: Homo sapiens;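 also: growth inhibition of the cancer cell line, determined with a cell viability assay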
Description: SANGER: Inhibition of human NCI-H2342 cell growth in a cell viability assay.

[39] = tested on: CAL-54; settings: Homo sapiens;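 also: growth inhibition of CAL-54 cells, read out by a viability measurement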
Description: SANGER: Inhibition of human CAL-54 cell growth in a cell viability assay.

[40] = tested on: TI-73; settings: Homo sapiens;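 also: cell viability assay measuring how much compounds suppress growth of the cultured cell line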
Description: SANGER: Inhibition of human TI-73 cell growth in a cell viability assay.

[41] = tested on: HCC1395; settings: Homo sapiens;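 also: growth inhibition of HCC1395 cells, read out by a cell viability assay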
Description: SANGER: Inhibition of human HCC1395 cell growth in a cell viability assay.

[42] = tested on: BFTC-905; settings: Homo sapiens
Description: SANGER: Inhibition of human BFTC-905 cell growth in a cell viability assay.

[43] = tested on: SCC-25; settings: Homo sapiens;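 also: growth inhibition of SCC-25 cells, measured with a cell viability assay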
Description: SANGER: Inhibition of human SCC-25 cell growth in a cell viability assay.

[44] = tested on: FTC-133; settings: Homo sapiens
[45] = tested on: HT-29; settings: Homo sapiens;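 also: growth inhibition of human HT-29 cells, read out by a cell viability assay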
Description: SANGER: Inhibition of human HT-29 cell growth in a cell viability assay.

[46] = tested on: CWR22R; settings: Homo sapiens, 22Rv1;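 also: growth inhibition of 22Rv1 cells, read out with a cell viability assay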
Description: SANGER: Inhibition of human 22RV1 cell growth in a cell viability assay.

[47] = tested on: HuO9; settings: Homo sapiens;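 also: growth inhibition of HuO9 cells, read out with a cell viability assay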
Description: SANGER: Inhibition of human HuO9 cell growth in a cell viability assay.

[48] = tested on: NCI-H727; settings: Homo sapiens;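 also: growth inhibition of human NCI-H727 cells, read out with a cell viability assay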
Description: SANGER: Inhibition of human NCI-H727 cell growth in a cell viability assay.

[49] = tested on: BT-549; settings: Homo sapiens
Description: SANGER: Inhibition of human BT-549 cell growth in a cell viability assay.

[50] = tested on: HTC-C3; settings: Homo sapiens;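 also: inhibition of cell growth, read out with a cell viability assay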
Description: SANGER: Inhibition of human HTC-C3 cell growth in a cell viability assay.

[51] = tested on: P12-Ichikawa; settings: Homo sapiens
[52] = tested on: HSC-4; settings: Homo sapiens;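 also: growth inhibition of human HSC-4 cells, read out with a cell viability assay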
Description: SANGER: Inhibition of human HSC-4 cell growth in a cell viability assay.

SMILES: O=c1cc(N2CCOCC2)oc2c(-c3cccc4c3sc3ccccc34)cccc12
- IC50 [1]: > 2 µM
- IC50 [2]: > 2 µM
- IC50 [3]: > 2 µM
- IC50 [4]: > 2 µM
- IC50 [5]: > 2 µM
- IC50 [6]: > 2 µM
- IC50 [7]: > 2 µM
- IC50 [8]: > 2 µM
- IC50 [9]: > 2 µM
- IC50 [10]: > 2 µM
- IC50 [11]: > 2 µM
- IC50 [12]: > 2 µM
- IC50 [13]: > 2 µM
- IC50 [14]: > 2 µM
- IC50 [15]: > 2 µM
- IC50 [16]: > 2 µM
- IC50 [17]: > 2 µM
- IC50 [18]: > 2 µM
- IC50 [19]: > 2 µM
- IC50 [20]: > 2 µM
- IC50 [21]: > 2 µM
- IC50 [22]: > 2 µM
- IC50 [23]: 0.466 µM
- IC50 [24]: > 2 µM
- IC50 [25]: > 2 µM
- IC50 [26]: > 2 µM
- IC50 [27]: > 2 µM
- IC50 [28]: > 2 µM
- IC50 [29]: > 2 µM
- IC50 [30]: > 2 µM
- IC50 [31]: > 2 µM
- IC50 [32]: > 2 µM
- IC50 [33]: > 2 µM
- IC50 [34]: > 2 µM
- IC50 [35]: > 2 µM
- IC50 [36]: > 2 µM
- IC50 [37]: > 2 µM
- IC50 [38]: > 2 µM
- IC50 [39]: > 2 µM
- IC50 [40]: > 2 µM
- IC50 [41]: > 2 µM
- IC50 [42]: > 2 µM
- IC50 [43]: > 2 µM
- IC50 [44]: > 2 µM
- IC50 [45]: > 2 µM
- IC50 [46]: > 2 µM
- IC50 [47]: > 2 µM
- IC50 [48]: > 2 µM
- IC50 [49]: > 2 µM
- IC50 [50]: > 2 µM
- IC50 [51]: > 2 µM

SMILES: NC(=O)c1ncn([C@@H]2O[C@H](COP(=O)(O)O)[C@@H](O)[C@H]2O)c1N
- IC50 [1]: > 2000 µM
- IC50 [2]: > 2000 µM
- IC50 [4]: 1380 µM
- IC50 [5]: 1920 µM
- IC50 [6]: > 2000 µM
- IC50 [7]: > 2000 µM
- IC50 [8]: > 2000 µM
- IC50 [9]: > 2000 µM
- IC50 [10]: 657 µM
- IC50 [11]: 1890 µM
- IC50 [12]: > 2000 µM
- IC50 [13]: > 2000 µM
- IC50 [14]: > 2000 µM
- IC50 [15]: 1490 µM
- IC50 [16]: 1780 µM
- IC50 [17]: 728 µM
- IC50 [18]: > 2000 µM
- IC50 [19]: > 2000 µM
- IC50 [20]: > 2000 µM
- IC50 [21]: 361 µM
- IC50 [22]: > 2000 µM
- IC50 [23]: 89.4 µM
- IC50 [24]: 1430 µM
- IC50 [26]: > 2000 µM
- IC50 [27]: > 2000 µM
- IC50 [28]: 744 µM
- IC50 [29]: 733 µM
- IC50 [30]: > 2000 µM
- IC50 [31]: 1330 µM
- IC50 [32]: 1310 µM
- IC50 [33]: 1010 µM
- IC50 [34]: 252 µM
- IC50 [52]: 874 µM
- IC50 [35]: > 2000 µM
- IC50 [36]: 507 µM
- IC50 [38]: > 2000 µM
- IC50 [39]: > 2000 µM
- IC50 [40]: 724 µM
- IC50 [41]: > 2000 µM
- IC50 [42]: > 2000 µM
- IC50 [43]: 1230 µM
- IC50 [45]: > 2000 µM
- IC50 [46]: > 2000 µM
- IC50 [47]: 1970 µM
- IC50 [48]: > 2000 µM
- IC50 [49]: 807 µM
- IC50 [50]: 252 µM
- IC50 [51]: 1470 µM
